# According to PMC8042770, “Odorant Receptors for Detecting Flowering Plant Cues Are Functionally Conserved across Moths and Butterflies” (Molecular Biology and Evolution, 2020):
# System: H. armigera third instar larvae
# Assay: Petri dish choice assay, third instar larvae
# Format: in vivo, Helicoverpa armigera
# Protocol: Our results provide strong evidence that PAA, via its detection by HarmOR42, is an important host plant cue in both larval and adult stages of H. armigera.
# For assessing larval behavior to PAA, the experiments were performed in closed plastic Petri dishes of 15 cm diameter (fig. 6D) as in [Poivet et al. (2013)] with some modifications. To ascertain the choice zone, we tracked the behavior trajectory of larvae to a regular diet. A piece of regular diet nutrition was placed at one of the opposite ends of the dish along the diameter. Ten third instar larvae were placed in the middle of the dish. The location of larvae was marked every 10 min for 1 h. Four replications were performed. Most of the larvae made choices within 40 min, so this time point was selected for choice statistics. For the choice behavior test, PAA and paraffin oil (solvent) were respectively added onto a piece of 1 × 1 cm filter paper and the papers were arranged at opposite ends. The two-choice zones were delineated by 4-cm radius half circles centered at each of the filter papers. The choice indexes (CI) were calculated using the formula: CI = (P − C)/T, where P represents the number of larvae that entered the PAA choice zone, C represents the number of larvae that entered the solvent zone, and T represents the total number of larvae in the test (ten larvae). We first determined the efficient test dose using three different dilutions of PAA (0.1, 1, and 10 μg) against wild-type larvae. The CI of larvae to PAA was compared with a blank (solvent on each side of the dish). […] Therefore, we used 1 μg of PAA to test the choice behavior of mutant larvae. Ten replicates were performed for each test.
compound,measurement,setting,value
O=CCc1ccccc1 [Phenylacetaldehyde],preference of HarmOR42 knock-out mutant larvae,"third instar, knock-out, 1 μg",lost their preference
same,attractive effect on wild-type larvae,"third instar, wild type, 1 μg, 40 min",significantly attracted
same,dose giving the most positive choice,"wild-type larvae, 0.1, 1 and 10 μg tested",1 µg
